Measured values reported in PMC6838142, “Nano-Antagonist Alleviates Inflammation and Allows for MRI of Atherosclerosis” (Nanotheranostics, 2019).

Key:
RAW-Blue cells = test: Nanoparticle cell-surface binding/uptake in RAW-Blue cells (rhodamine fluorescence); assay type: cell-based, mouse; conditions: 1 and 10 µM nanoparticles with 1% rhodamine; 550/620 nm
Experimental: A schematic representation of nanoparticle screening is depicted in Supplementary Figure S4. Briefly, RAW-Blue NFkB reporter cells were cultured as per the manufacturer's recommendations. Cells were seeded and cultured overnight in black opaque 96-well plates with a clear bottom at 50,000 per well. Cells were then treated with 1 and 10 µM of nanoparticles containing 1% rhodamine and positive and negative controls (see below) for 30 min on ice followed by washing steps with cold PBS. Next, lipopolysaccharide (LPS) was added at 100 ng/mL and incubated for 6 h at 37 °C, following which the cells were washed again and incubated for 18 h at 37 °C in fresh medium. Next, 20 µL of supernatant was collected and assayed using SEAP detection reagent in a separate clear bottom 96-well plate as per Invivogen instructions (http://www.invivogen.com). Absorbance at OD 650 nm was recorded and was indicative of NFkB activation. In parallel, cells in the opaque plate were washed again and fluorescence was read at 550 nm excitation and 620 nm emission. This signal from rhodamine was indicative of nanoparticle uptake. […] All analysis was performed using Molecular Devices i3 multi-mode plate reader and SoftMax Pro software version 6.2 (Molecular Devices).

RAW cells = test: Fluorescence microscopy of binding and uptake in RAW cells; assay type: cell-based, mouse
Text: Figure 1 Screening identifies CCTV as an anti-inflammatory nanoparticle with high affinity for CC chemokine receptor 2. A) A screening of a small library of nanoparticles in lipopolysaccharide (LPS)-stimulated macrophage reporter cells (RAW-Blue) identified CCTV, which downregulates nuclear factor-kappa B (NF-κB) activity. Each point on the plot represents a relative activity of NF-κB (X-coordinate) and corresponding nanoparticle content per mg of cell protein (Y-coordinate) calculated from nanoparticle fluorescence. […] Dexamethasone (Dex) is an NF-κB inhibitor and was used as a positive control. Vehicle-treated and unstained (US) cells served as a negative control. B) CCTV binding to the cell surface was validated in RAW cells using fluorescence microscopy. The cells were stained at 4 °C or room temperature for 30 min with CCTV or vehicle nanoparticles (sudo-colored green). Lysosomes were visualized after staining with LAMP1 antibody (red). Nuclei were stained using Hoechst 33342 (blue). C) The uptake of CCTV was inhibited in the presence of 5 µM cytochalasin D (cyto D). DMSO served as vehicle control. Calcein AM was used for whole cell staining. D) CCTV binding to a receptor on the cell surface was studied by flow cytometry in the presence and absence of the excess (1 mM) of the free peptide. E) The Basic Local Alignment Search Tool (BLAST) analysis determined that CCTV peptide sequence repeats in mouse and human CC chemokine receptor family. Only the first 50 amino acids are shown. F) Chemical structure of CCTV and its mirror analog VTCC and their possible conjugation strategies that include N- (N-term.) and C-terminus (C-term.) as well as sulfhydryl attachment. […]
For a targeted nanotherapy to be effective, the nanoparticles must have affinity to a specific cell type, usually determined by cell surface binding. […] Thus, we used the mouse macrophage reporter cell line RAW-Blue that allowed for monitoring activity of Nuclear Factor-kappa B (NF-kB) and also enabled In vitro quantitation of nanoparticle binding to the cell surface. […]

BMDMs = test: CCL2-induced actin polymerization in BMDMs; assay type: cell-based; conditions: 6 h pre-treatment, 500 nM recombinant mouse CCL2; 5 µM; phalloidin staining
Experimental: Next, cells were washed with PBS and recombinant mouse CCL2 was added to a final concentration of 500 nM. Then, cells were incubated for varying times (indicated in Figure 2G), after which they were immediately placed on ice and washed 3 times with cold PBS. Actin polymerization was then visualized following staining with phalloidin Alexa Fluor 633, according to the manufacturer's instructions.

[1] = test system: CCR2hiLy6Chi inflammatory cells in blood of ApoE-/- mice; test: Flow cytometry of blood immune cells after injection; assay type: in vivo, mouse
Experimental: Twenty-four hours after nanoparticle injection (see above), mice were euthanized and whole blood was collected via cardiac puncture. The cells were separated from plasma via centrifugation at 2500 rpm for 25 min at 4 °C and white blood cells were isolated after lysis of red blood cells with ACK lysis buffer. The cells were resuspended in 1% FBS in PBS (FACS buffer) on ice and stained with fluorophore-conjugated antibodies detecting CD11b, CD11c, CCR2, and Ly6C (Supplementary Table S1) for 30 min at room temperature. Cells were washed with FACS buffer three times and one time with PBS, and then fixed in 2% paraformaldehyde in PBS, pH 7.4. Samples were run on a Becton Dickinson LSR II flow cytometer and cell surface expression analysis of indicated markers was performed using FlowJo software.

## CCTV
RAW-Blue cells
  cell-surface binding: high cell-surface binding
RAW cells; 5 µM cytochalasin D, DMSO vehicle control
  uptake in presence of cytochalasin D: inhibited
RAW cells; RAW cells, 4 °C, 30 min, vs vehicle nanoparticles
  cell-surface binding at 4oC: rapidly bound to the cell surface
RAW cells; RAW cells, room temperature, LAMP1 co-staining
  uptake at room temperature: mediated by endocytosis
BMDMs
  actin polymerization: significantly inhibited actin polymerization
[1]; 100 mg/kg, 24 h, three ApoE-/- mice/group
  accumulation in CCR2-positive blood macrophage subpopulations: selectively accumulated in macrophage subpopulations positive for CCR2
[1]; 100 mg/kg, 24 h, three ApoE-/- mice/group, vs VTCC
  nanoparticle-positive CCR2hiLy6Chi cells: an increased number of these cells were CCTV positive compared to VTCC
[1]; Supplementary Figure S9, CCTV vs VTCC
  number of macrophages that engulfed nanoparticles: not due to a different number of macrophages that engulfed nanoparticles
